Assay results: article PMC11596563, “N-Aryl Benzimidazole and Benzotriazole Derivatives and Their Hybrids as Cytotoxic Agents: Design, Synthesis and Structure–Activity Relationship Studies” (Molecules, 2024)

What was measured:
A549 = assay: MTT test, cytotoxic effect; assay type: cell-based; settings: Homo sapiens, 24 h treatment, 0.1 to 100 µM, concentration that causes 50% cell death
Experimental: (§1) At the first stage of biological testing, we studied the effect of the synthesized compounds on the survival of cells of both tumoral and normal origin. […] In our work, the cytotoxic profile of the synthesized molecules was assessed using the MTT test, based on the ability of a colorless tetrazolium salt (3-[4,5-dimethylthiazol-2-yl]-2,5-diphenyltetrazolium bromide, MTT) to be reduced to colored formazan in the presence of the mitochondrial enzymes of living cells. For this purpose, a number of cell lines of tumoral origin (SH-SY5Y, A549, MCF-7 and SW-480), as well as normal origin (Hek-293), were used.
(§2) For the experiments, we used tumor cell cultures SH-SY5Y, human neuroblast-like cells, A549, human lung adenocarcinoma, MCF-7, human mammary adenocarcinoma, SW-480 and human colorectal adenocarcinoma, as well as cells of normal origin obtained from human embryonic kidneys, Hek-293.
(§3) All cells were cultured in the Dulbecco Modified Eagle’s Medium (DMEM) with a high glucose content, 10% fetal bovine serum and 1% penicillin-streptomycin as an antibiotic, in a moist incubator with 5% CO2 at 37°C.
(§4) To measure cellular metabolic activity, a colorimetric analysis was performed using the MTT reagent (3-(4,5–dimethylthiazol-2-yl)-2,5-diphenyltetrazolium bromide), which is an inhibitor of viable cells [73, 74].
(§5) • Briefly, cells in the logarithmic growth phase were digested and resuspended to adjust the cell density. The cells were then seeded in 96-well plates at a density of 10,000 cells per well. After 24 h of the incubation of the cells under the standard conditions described above (for the purpose of cell adhesion), the cells were treated with the synthesized compounds at different concentrations (0.1 to 100 µM) or a vehicle alone as a control (1% DMSO) for 24 h. After the incubation time of the cells with synthesized compounds, 5 mg/mL of MTT was added to the cells and incubated for 2 h at 37 °C. Next, the supernatant was discarded; after that, the formazan crystals were dissolved in a DMSO and the absorbance of each well was measured at 570 nm using a multifunctional microplate reader, Cytation3 (Biotech Tools Inc., Winooski, USA).

MCF-7 = assay: MTT test, cytotoxic effect; assay type: cell-based; settings: Homo sapiens, MCF7, 24 h treatment, 0.1 to 100 µM, concentration that causes 50% cell death
Experimental: as §1, §2, §3, §4, §5

SW-480 = assay: MTT test, cytotoxic effect; assay type: cell-based; settings: Homo sapiens, SW480, 24 h treatment, 0.1 to 100 µM, concentration that causes 50% cell death
Experimental: as §1, §2, §3, §4, §5

[1] = MTT test, cytotoxic effect on cells of normal origin; assay type: cell-based, human; settings: human, Hek-293 cells (normal origin), 24 h treatment, 0.1 to 100 µM, normal cells, concentration that causes 50% cell death
Experimental: as §1, §2, §3, §4, §5

SH-SY5Y = assay: cells; settings: Homo sapiens, 24 h, read-out: IC50 of the cytotoxic effect, SH-SY5Y
Experimental: as §1, §2, §3, §4, §5

Hek-293 = assay: MTT test, cytotoxic effect on cells of normal origin; assay type: cell-based, human; settings: Hek-293
Experimental: as §1, §2, §3, §4, §5

[2] = test system: Fe(II)-induced lipid peroxidation (LPO) of rat brain homogenate; assay: Fe(II)-induced lipid peroxidation, modified TBARS test; assay type: biochemical; settings: Fe(II) 500 μM, rat brain homogenate 2 mg/mL; for IC50: 1 to 300 μM, read-out: IC50 of the lipid peroxidation inhibitory effect
Experimental: In our work, the antioxidant status of the compounds was determined by their ability to influence the process of Fe(II)-induced lipid peroxidation (LPO) of rat brain homogenate (2 mg/mL). The effect of the substances on LPO was studied using a modified version of the TBA test in a plate format. This test is based on the reaction of 2-thiobarbituric acid with intermediate LPO products, resulting in the formation of a colored trimethine complex, the main role in the formation of which belongs to malondialdehyde. […] This was expressed in a decrease in the level of malondialdehyde in the system by 70, 79 and 71%, respectively, tending to the values of the well-known antioxidant Trolox. Additionally, the IC50 values of the lipid peroxidation inhibitory effect were calculated for these molecules, the values of which are presented in Figure 2B.
To obtain rat brain homogenate, an animal previously anesthetized in a CO2 chamber was decapitated using a guillotine. The brain was homogenized in a buffer containing KCl (120 mM) and HEPES (20 mM), pH = 7.4 at 4 ° C and centrifuged at 1500 g to obtain a supernatant.
The intensity of the lipid peroxidation of the rat brain homogenate was evaluated using a modified TBARS test. […] In the wells of the negative control, the Fe(II) was replaced with water; in samples with a positive control, a solvent was introduced instead of the studied compounds.
At the end of incubation, a TBA reagent ([…] thiobartituric and 1% trichloroacetic acids dissolved in 0.25 N HCl) was added to each well and heated at 90 °C for 90 min.

A549 cells = assay: Wound-healing assay (scratch test); assay type: cell-based, human; settings: 1 μM
Description: It is also well known that migration and proliferation of cancer cells are key processes involved in the metastatic cascade of malignant neoplasms. In turn, the ability of therapeutic agents to inhibit these processes is considered a promising property of antitumor agents. In this regard, in order to assess the possible antimetastatic potential of cytotoxic diphenylamines 6b, c and d, we analyzed the effect of the substances on the migration and proliferation of tumor cells A549 in a scratch test.
Based on a preliminary series of experiments, 1 μM was chosen as the concentration used in this test, excluding the intrinsic cytotoxic effect of the substances. […] Thus, the data obtained 24 h after the damage was applied allowed us to evaluate the migration capacity of the cells, minimizing the contribution of cell proliferation.
The migration activity of A549 cells was determined by the wound-healing assay (scratch test). To do this, cells (15,000 cells per well) were seeded in a 96-well plate and cultured under the standard conditions described above. After 24 h of incubation, when the cells became 90% confluent, the medium was selected and an identical scratch wound across the center of each well was made by a 200 µL pipette tip.
To remove detached cells, the cell monolayer was washed twice with PBS; after that, the growth media and test compounds at 1 µM (or 1% DMSO as a solvent) were added to each well. A phase contrast microscope at a ×40 magnification was used to take photomicrographs after making the wound and then 24 h, 48 h and 72 h later.
The analysis of the obtained images was calculated using the open-source program ImageJ [80] and a special module: Wound_healing_size_tool.

| Structure (SMILES) | IC50 (A549) [µM] | IC50 (MCF-7) [µM] | IC50 (SW-480) [µM] | IC50 at 24 h [1] [µM] | melting point [°C] | IC50 (SH-SY5Y) [µM] | cytotoxic effect on cell line of normal origin (Hek-293) | IC50 [2] [µM] | decrease in the level of malondialdehyde ([2]; compounds at 100 μM) [%] | migration capacity, decrease in the scratch width vs control (A549 cells; 24 h after the damage) | ability to suppress the migratory activity of A549 tumor cells (A549 cells; conclusion) |
| --- | --- | --- | --- | --- | --- | --- | --- | --- | --- | --- | --- |
| O=[N+]([O-])c1cc(C(F)(F)F)ccc1-n1cnc2ccccc21 [3a, 1-(2-Nitro-4-(trifluoromethyl)phenyl)-1H-benzimidazole] | ≥ 100 | 92.4 ± 1.4 | ≥ 100 | 77.3 ± 2.12 | 130 to 132 | 62.2 ± 0.11 |  |  |  |  |  |
| O=[N+]([O-])c1cc(Cl)ccc1-n1cnc2ccccc21 [3b, 1-(4-Chloro-2-nitrophenyl)-1H-benzimidazole] | ≥ 100 | ≥ 100 | ≥ 100 | ≥ 100 | 102 to 105 | ≥ 100 |  |  |  |  |  |
| O=[N+]([O-])c1cc(C(F)(F)F)ccc1-n1nnc2ccccc21 [3c, 1-[2-Nitro-4-(trifluoromethyl)phenyl]-1H-benzotriazole] | ≥ 100 | ≥ 100 | ≥ 100 | ≥ 100 | 133 to 136 | ≥ 100 |  |  |  |  |  |
| CCOC(=O)c1ccc(-n2nnc3ccccc32)c([N+](=O)[O-])c1 [3d, Ethyl 4-(1H-benzotriazol-1-yl)-3-nitrobenzoate] | ≥ 100 | ≥ 100 | ≥ 100 | ≥ 100 | 115 to 119 | ≥ 100 |  |  |  |  |  |
| O=[N+]([O-])c1cc(Cl)ccc1-n1nnc2ccccc21 [3e, 1-(4-Chloro-2-nitrophenyl)-1H-benzotriazole] | ≥ 100 | ≥ 100 | ≥ 100 | ≥ 100 | 134 to 137 | ≥ 100 |  |  |  |  |  |
| Nc1cc(C(F)(F)F)ccc1-n1cnc2ccccc21 [4a, 2-(1H-benzimidazol-1-yl)-5-(trifluoromethyl)aniline] | 67.17 ± 0.12 | 65.26 ± 0.07 | 84.03 ± 0.38 | 82.89 ± 0.46 | 209 to 210 | 66.75 ± 0.41 |  |  |  |  |  |
| Nc1cc(Cl)ccc1-n1cnc2ccccc21 [4b, 2-(1H-benzimidazol-1-yl)-5-chloroaniline] | ≥ 100 | ≥ 100 | ≥ 100 | ≥ 100 | 192 to 195 | ≥ 100 |  |  |  |  |  |
| Nc1cc(C(F)(F)F)ccc1-n1nnc2ccccc21 [4c, 2-(1H-benzotriazol-1-yl)-5-(trifluoromethyl)aniline] | 65.38 ± 0.17 | 75.2 ± 1.43 | ≥ 100 | ≥ 100 | 136 to 139 | 39.59 ± 0.05 | without affecting the survival |  |  |  |  |
| CCOC(=O)c1ccc(-n2nnc3ccccc32)c(N)c1 [4d, Ethyl 3-amino-4-(1H-benzotriazol-1-yl)benzoate] | ≥ 100 | ≥ 100 | ≥ 100 | ≥ 100 | 132 to 136 | ≥ 100 |  |  |  |  |  |
| Nc1cc(Cl)ccc1-n1nnc2ccccc21 [4e, 2-(1H-benzotriazol-1-yl)-5-chloroaniline] | 91.87 ± 0.02 | 82.48 ± 0.32 | ≥ 100 | 87.4 ± 1.42 | 154 to 156 | 99.1 ± 1.47 |  |  |  |  |  |
| O=[N+]([O-])c1cc(C(F)(F)F)ccc1Nc1cc(C(F)(F)F)ccc1-n1cnc2ccccc21 [5a, N-[2-(1H-benzimidazol-1-yl)-5-(trifluoromethyl)phenyl]-2-nitro-4-(trifluoromethyl)aniline] | ≥ 100 | ≥ 100 | ≥ 100 | ≥ 100 | 180 to 183 | ≥ 100 |  |  |  |  |  |
| O=[N+]([O-])c1cc(C(F)(F)F)ccc1Nc1cc(C(F)(F)F)ccc1-n1nnc2ccccc21 [5b, N-[2-(1H-benzotriazol-1-yl)-5-(trifluoromethyl)phenyl]-2-nitro-4-(trifluoromethyl)aniline] | ≥ 100 | ≥ 100 | ≥ 100 | ≥ 100 | 203 to 204 | ≥ 100 |  |  |  |  |  |
| CCOC(=O)c1ccc(Nc2cc(C(F)(F)F)ccc2-n2nnc3ccccc32)c([N+](=O)[O-])c1 [5c, Ethyl 4-[2-(1H-benzotriazol-1-yl)-5-(trifluoromethyl)anilino]-3-nitrobenzoate] | ≥ 100 | ≥ 100 | ≥ 100 | ≥ 100 | 192 to 196 | ≥ 100 |  |  |  |  |  |
| O=[N+]([O-])c1cc(C(F)(F)F)ccc1Nc1cc(Cl)ccc1-n1nnc2ccccc21 [5d, N-[2-(1H-benzotriazol-1-yl)-5-chlorophenyl]-2-nitro-4-(trifluoromethyl)aniline] | ≥ 100 | ≥ 100 | ≥ 100 | ≥ 100 | 178 to 181 | ≥ 100 |  |  |  |  |  |
| CCOC(=O)c1ccc(Nc2cc(C(F)(F)F)ccc2-n2nnc3ccccc32)c(N)c1 [6c, Ethyl 3-amino-4-[2-(1H-benzotriazol-1-yl)-5-(trifluoromethyl)anilino]benzoate] | 37.68 ± 0.2 | 77.05 ± 0.67 | ≥ 100 | ≥ 100 | 178 to 181 | 20.94 ± 0.13 | did not exert a cytotoxic effect | 1.11 ± 0.13 | 79 | did not find any differences | failed to demonstrate the ability to suppress the migratory activity |
| FC(F)(F)c1ccc(-n2nnc3ccccc32)c(-n2cnc3cc(C(F)(F)F)ccc32)c1 [7a, 1-{4-(trifluoromethyl)-2-[5-(trifluoromethyl)-1H-benzimidazol-1-yl]phenyl}-1H-benzotriazole] | ≥ 100 | ≥ 100 | ≥ 100 | ≥ 100 | 124 to 128 | ≥ 100 |  |  |  |  |  |
| CCOC(=O)c1ccc2c(c1)ncn2-c1cc(C(F)(F)F)ccc1-n1nnc2ccccc21 [7b, Ethyl 1-[2-(1H-benzotriazol-1-yl)-5-(trifluoromethyl)phenyl]-1H-benzimidazole-5-carboxylate] | ≥ 100 | ≥ 100 | ≥ 100 | ≥ 100 | 100 to 104 | ≥ 100 |  |  |  |  |  |
| FC(F)(F)c1ccc2c(c1)ncn2-c1cc(Cl)ccc1-n1nnc2ccccc21 [7c, 1-{4-Chloro-2-[5-(trifluoromethyl)-1H-benzimidazol-1-yl]phenyl}-1H-benzotriazole] | ≥ 100 | 45.12 ± 0.22 | ≥ 100 | 36.27 ± 0.14 | 136 to 141 | ≥ 100 |  |  |  |  |  |
| ONc1cc(C(F)(F)F)ccc1-n1cnc2ccccc21 [8a, N-(2-(1H-benzimidazol-1-yl)-5-(trifluoromethyl)phenyl)hydroxylamine] |  |  |  |  | 153 to 156 |  |  |  |  |  |  |
| ONc1cc(C(F)(F)F)ccc1-n1nnc2ccccc21 [8b, N-(2-(1H-benzotriazol-1-yl)-5-(trifluoromethyl)phenyl)hydroxylamine] |  |  |  |  | 151 to 154 |  |  |  |  |  |  |
| Cc1c(C)c2c(c(C)c1O)CCC(C)(C(=O)O)O2 (stereo not drawn) [Trolox, reference compound] |  |  |  |  |  |  |  | 32.45 ± 0.24 |  |  |  |
